Data from PubChem BioAssay (NCI).
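Growth conditions: 96-well plates. Treatment: test compound, 48 hours, 5 concentrations. Analysis: linear interpolation between bracketing concentrations; unreached endpoints set to highest concentration. TGI marks complete inhibition of growth.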

Key:
Test in all cases: DTP human tumour cell line panel, 48 h
786-0 renal = test system: 786-0 renal
A498 renal = test system: A498 renal
A549 NSCLC = test system: A549 NSCLC
ACHN renal = test system: ACHN renal
BT-549 breast = test system: BT-549 breast
CAKI-1 renal = test system: CAKI-1 renal
CCRF-CEM leukemia = test system: CCRF-CEM leukemia
COLO 205 colon = test system: COLO 205 colon
DU-145 prostate = test system: DU-145 prostate
EKVX NSCLC = test system: EKVX NSCLC
HCC-2998 colon = test system: HCC-2998 colon
HCT-116 colon = test system: HCT-116 colon
HCT-15 colon = test system: HCT-15 colon
HL-60(TB) leukemia = test system: HL-60(TB) leukemia
HOP-62 NSCLC = test system: HOP-62 NSCLC
HOP-92 NSCLC = test system: HOP-92 NSCLC
HS 578T breast = test system: HS 578T breast
HT29 colon = test system: HT29 colon
IGROV1 ovarian = test system: IGROV1 ovarian
KM12 colon = test system: KM12 colon
LOX IMVI melanoma = test system: LOX IMVI melanoma
M14 melanoma = test system: M14 melanoma
MALME-3M melanoma = test system: MALME-3M melanoma
MCF7 breast = test system: MCF7 breast
MDA-MB-231 breast = test system: MDA-MB-231 breast
MDA-MB-435 = test system: MDA-MB-435
MDA-N = test system: MDA-N
NCI-H226 lung = test system: NCI-H226 lung
NCI-H23 lung = test system: NCI-H23 lung
NCI-H460 lung = test system: NCI-H460 lung
NCI-H522 lung = test system: NCI-H522 lung
NCI/ADR-RES ovarian = test system: NCI/ADR-RES ovarian
OVCAR-3 ovarian = test system: OVCAR-3 ovarian
OVCAR-4 ovarian = test system: OVCAR-4 ovarian
OVCAR-5 ovarian = test system: OVCAR-5 ovarian
OVCAR-8 ovarian = test system: OVCAR-8 ovarian
PC-3 prostate = test system: PC-3 prostate
RPMI-8226 leukemia = test system: RPMI-8226 leukemia
RXF 393 renal = test system: RXF 393 renal
SF-268 CNS = test system: SF-268 CNS
SF-295 CNS = test system: SF-295 CNS
SF-539 CNS = test system: SF-539 CNS
SK-MEL-2 melanoma = test system: SK-MEL-2 melanoma
SK-MEL-28 melanoma = test system: SK-MEL-28 melanoma
SK-MEL-5 melanoma = test system: SK-MEL-5 melanoma
SK-OV-3 ovarian = test system: SK-OV-3 ovarian
SN12C renal = test system: SN12C renal
SNB-19 CNS = test system: SNB-19 CNS
SNB-75 CNS = test system: SNB-75 CNS
SR leukemia = test system: SR leukemia
SW-620 colon = test system: SW-620 colon
T-47D breast = test system: T-47D breast
TK-10 renal = test system: TK-10 renal
U251 CNS = test system: U251 CNS
UACC-257 melanoma = test system: UACC-257 melanoma
UACC-62 melanoma = test system: UACC-62 melanoma
UO-31 renal = test system: UO-31 renal

CCOC(=O)C#Cc1cccc(C#CC(=O)OCC)c1
TGI (786-0 renal): 8.85 µM | TGI (A498 renal): 36.2 µM | TGI (A549 NSCLC): 16.6 µM | TGI (ACHN renal): 11.6 µM | TGI (BT-549 breast): 5.1 µM | TGI (CAKI-1 renal): 10.2 µM | TGI (CCRF-CEM leukemia): 6.34 µM | TGI (COLO 205 colon): 9.92 µM | TGI (DU-145 prostate): 17.9 µM | TGI (EKVX NSCLC): 2.42 µM | TGI (HCC-2998 colon): 2.1 µM | TGI (HCT-116 colon): 7.1 µM | TGI (HCT-15 colon): 16.1 µM | TGI (HL-60(TB) leukemia): 4.06 µM | TGI (HOP-62 NSCLC): 11.6 µM | TGI (HOP-92 NSCLC): 11.8 µM | TGI (HS 578T breast): > 30.3 µM | TGI (HT29 colon): 9.07 µM | TGI (IGROV1 ovarian): 32.5 µM | TGI (KM12 colon): 15.2 µM | TGI (LOX IMVI melanoma): 5.83 µM | TGI (M14 melanoma): 5.95 µM | TGI (MALME-3M melanoma): 12.1 µM | TGI (MCF7 breast): 15.6 µM | TGI (MDA-MB-231 breast): 11.2 µM | TGI (MDA-MB-435): 9.52 µM | TGI (MDA-N): 6.44 µM | TGI (NCI-H226 lung): 22.1 µM | TGI (NCI-H23 lung): 10.6 µM | TGI (NCI-H460 lung): 39.2 µM | TGI (NCI-H522 lung): 30.9 µM | TGI (NCI/ADR-RES ovarian): 14.6 µM | TGI (OVCAR-3 ovarian): 13.4 µM | TGI (OVCAR-4 ovarian): 7.59 µM | TGI (OVCAR-5 ovarian): 2.4 µM | TGI (OVCAR-8 ovarian): 26 µM | TGI (PC-3 prostate): 14.9 µM | TGI (RPMI-8226 leukemia): 13 µM | TGI (RXF 393 renal): 10.9 µM | TGI (SF-268 CNS): 16.7 µM | TGI (SF-295 CNS): 3.48 µM | TGI (SF-539 CNS): 9.65 µM | TGI (SK-MEL-2 melanoma): 5.04 µM | TGI (SK-MEL-28 melanoma): 9.99 µM | TGI (SK-MEL-5 melanoma): 8.29 µM | TGI (SK-OV-3 ovarian): 19.5 µM | TGI (SN12C renal): 8.21 µM | TGI (SNB-19 CNS): 11.4 µM | TGI (SNB-75 CNS): 13.4 µM | TGI (SR leukemia): 3.25 µM | TGI (SW-620 colon): 14.6 µM | TGI (T-47D breast): 98.4 µM | TGI (TK-10 renal): 10.6 µM | TGI (U251 CNS): 9.87 µM | TGI (UACC-257 melanoma): 24.2 µM | TGI (UACC-62 melanoma): 9.53 µM | TGI (UO-31 renal): 10.1 µM
